Test results from patent US8674115B2, “CRTH2 modulators” (Ironwood Pharmaceuticals, Inc., priority 2009, dated 2014).

Columns and labels:
[1] = target: T1, CRTH2 (Homo sapiens, UniProt Q9Y5Y4); test: DPBS CD11b antagonist assay (CD11b expression in eosinophils); type: cell-based; settings: challenged with 10 nM 15R-Methyl-PGD2, read-out: CD11b Antag IC50(nM) [HuEos-DPBS-vs10nM15R]
T1 sequence (Q9Y5Y4 1-395): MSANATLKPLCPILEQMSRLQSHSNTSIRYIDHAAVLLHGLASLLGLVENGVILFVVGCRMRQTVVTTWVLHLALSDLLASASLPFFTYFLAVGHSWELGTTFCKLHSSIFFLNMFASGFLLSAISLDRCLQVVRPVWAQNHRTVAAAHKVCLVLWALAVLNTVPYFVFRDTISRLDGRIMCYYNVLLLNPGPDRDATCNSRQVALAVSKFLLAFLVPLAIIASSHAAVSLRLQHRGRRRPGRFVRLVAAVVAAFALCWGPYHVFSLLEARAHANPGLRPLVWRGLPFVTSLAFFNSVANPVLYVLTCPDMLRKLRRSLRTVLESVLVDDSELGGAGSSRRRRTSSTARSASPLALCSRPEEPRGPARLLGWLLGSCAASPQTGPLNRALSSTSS
Method: DPBS CD11b Antagonist Assay.
The potential CRTH2 antagonist activity of certain compounds was tested using a CD11b expression assay using essentially the method described by Monneret et al. (J Pharmacol Exp Ther 304:349-55, 2003). Briefly, polymorphonuclear cells (0.5 ml; 10^6/ml cells) in PBS containing 0.9 mM CaCl2 and 0.5 mM MgCl2) were preincubated with various concentrations of test compounds at room temperature for 10 minutes before they were challenged with the agonist 15R-Methyl-PGD2 (10 nM). The incubations were terminated by the addition of ice-cold FACSFlow (BD Biosciences; Cat# 342003) and centrifugation (400 g for 5 minutes at 4° C.). The cells were then incubated for 30 minutes at 4° C. with a mixture of PE-labeled mouse anti-human VLA-4 (5 μl; BD Biosciences) and FITC-labeled mouse anti-human CD11b (10 μl; Beckman Coulter). The cells were then incubated with Optilyse C (0.25 ml; Beckman Coulter) for 15 minutes, centrifuged, and then fixed in PBS (0.4 ml; calcium and magnesium free) containing 1% formaldehyde. The distribution of fluorescence intensities among 60,000 cells was measured by flow cytometry. Eosinophils were gated out on the basis of their granularity (high side scatter) and labeling with VLA-4 (PE fluorescence). CD11b was then measured in the eosinophil region on the basis of fluorescence due to FITC. All data were corrected for the value obtained for the corresponding isotope control antibody.

[2] = target: T1, CRTH2; test: Human whole blood CD11b antagonist assay (CD11b expression in eosinophils); type: cell-based; set-up: endogenous in cells; host or cells: eosinophils in human whole blood; settings: challenged with 10 nM 15R-Methyl-PGD2, read-out: CD11b Antag IC50(nM) [HuEos-HuWB-vs10nM15R]
Method: Human Whole Blood CD11B Antagonist Assay (Modified from Nicholson, et al. Pulmonary Pharmacology and Therapeutics: 20 (2007); 52-59).
The potential CRTH2 antagonist activity of certain compounds was tested in human whole blood using an assay that tests the ability of the compounds to block the CD11b expression in eosinophils by 15-R-methyl-PGD2. A CRTH2 antagonist should block CD11b expression by subsequently added 15-Methyl-PGD2. Human whole blood (200 μL) was incubated at 37° C. for 10 minutes in the presence of various concentrations of test compounds before being challenged with the agonist 15R-Methyl-PGD2 (10 nM). Reactions were terminated by the addition of ice-cold PBS+0.5% BSA+2 mMEDTA (1 mL) and centrifugation (300×g for 5 minutes at 4° C.) Cells were then incubated at 4° C. for 10 min in the presence of human IgG. Cells were then incubated for 30-45 min with a mixture of PE-Cy5-labeled mouse anti-human CD16 (10 ul; BD Biosciences) and FITC-labeled mouse anti-human CD11b (10 μL; Beckman Coulter.) After rinsing (1 mL ice-cold PBS+0.5% BSA+2 mMEDTA), red blood cells were lysed by the addition of 1 mL ice-cold H2O to the cell pellet for 30 sec-1 min immediately followed by the addition of 3.5% NaCl (300 μL.) Cells were then rinsed (2×-1 ml ice cold PBS+0.5% BSA+2 mMEDTA) and fixed in PBS containing 1% formaldehyde. The distribution of fluorescence intensities was measured by flow cytometry. Eosinophils were gated out on the basis of their granularity (high side scatter) and absence of CD-16. CD11b was then measured on this eosinophil population on the basis of fluorescence due to FITC.

SMILES	IC50 [1]	IC50 [2]
Cc1c(Cc2ccccc2S(=O)(=O)c2ccccc2)cc(-c2ccccc2)n1CC(=O)O [I-6, 2-(2-methyl-5-phenyl-3-(2-(phenylsulfonyl)benzyl)-1H-pyrrol-1-yl)acetic acid]	< 5 nM	100 to 500 nM
CC(=O)c1c(Cc2ccccc2S(=O)(=O)N2CCCC2)c(C)n(CC(=O)O)c1C [I-53, 2-(3-acetyl-2,5-dimethyl-4-(2-(pyrrolidin-1-ylsulfonyl)benzyl)-1H-pyrrol-1-yl)acetic acid]	< 5 nM	5 to 100 nM
